These results are taken from patent publication US6593372B2, “Therapeutic uses for nitric oxide inhibitors” (Cold Spring Harbor Laboratory, priority 1996, dated 2003).

What all share (assay type): in vivo
Test [1] relates to Drosophila melanogaster larvae. Briefly: Adult fly phenotype (leg segment hypertrophy) after injection of NOS inhibitors into third instar larvae. The conditions noted are these: adults after injection of late third instar larvae. The protocol: Chemicals were dissolved in Schneider's solution at concentrations of 0.1 M for L-NAME and D-NAME and 0.01M for ETU and mixed with Freund's adjuvant (Sigma) in 1:3 ratio. Amounts of 5-10 nl were microinjectd in staged late third instar using a glass needle.
To test this hypothesis, NOS activity was inhibited by injecting specific NOS inhibitors in the developing larvae at the end of the third instar, several hours before metamorphosis. Most of the larvae completed metamorphosis successfully, giving rise to adult flies within the normal time frame. The resulting adults differed from normal flies in many respects, the most dramatic being enlargements of the appendages and other structures of the fly body. The changes included a) hypertrophy of the demur, tibia and the segments of the tarsus; b) overgrowth of the tissues originating from the genital discs; in extreme cases, these cells contributed to more than one-quarter of the fly body; c) and increase of the overall surface of the wings; d) overgrowth of the cells of tergites and sternites; e) hypertrophy of the humerus; f) occasional duplications of some areas of the eye; g) occasional realformation of genital structures, legs and eyes; and h) occasional ectopic formation of misplaced body structures.
The changes were most profound in, and most often affected the legs of, the adults. […]

For test [2], the system named is transplanted BM cells, spleen colonies. Briefly: Hemopoietic colonies in spleens of irradiated mice after BM transplantation and injection of NOS inhibitors (erythroid differentiation). The following applies: 9-10 days after transplantation. As for the experimental part:
To study the formation of cell of the erythroid lineage in the spleen of the irradiated recipient mice, the animals (females of F1 CBA×C57B1 hybrids weighing 22-24 g) were treated with 750 cGy total body irradiation within 3-4 hours before transplantation. This dosage was tested to be enough for complete suppression of hematopoiesis in the irradiated recipient animals. BM cells were flushed from the femurs of syngeneic donors and injected intravenously (10^5 BM cells per mice) in the recipients. The animals received twice a day injections of 100 mg/kg of L-NAME and D-NAME and 10 mg/kg of ETU for 7-10 days. Mice were analyzed 9-10 days after transplantation.
In contrast, when animals were treated with NOS inhibitors after BM transplantation, most of the colonies in the spleen contained undifferentiated blast cells (up to 85% of blast cells colonies and mixed blast erythroid cells colonies). Erythroid colonies comprised only 15% of the total number of colonies, and the megakaryocyte and granulocyte colonies were not detectable. The results were similar with two structurally unrelated NOS inhibitors, confirming the specificity of their action. Thus, prolonged treatment of recipient mice after BM transfer with NOS inhibitor, reversed the ratio of blast cells-containing colonies to the erythroid cells-containing colonies almost 16 fold, effectively preventing erythroid differentiation.

In test [3] the test system is transplanted BM cells, membrane colonies. The test can be described thus: Hemopoietic colonies on cellulose acetate membranes in the peritoneal cavity of irradiated mice (myeloid differentiation). The following applies: 7-8 days. The protocol: To study the formation of cells of the myeloid lineage, cellulose acetate membranes were implanted in the peritoneal cavity of mice. After 7 days, when a layer of fibroblasts had covered the membranes, the mice were irradiated as described above. BM cells from syngeneic donors were injected (10^5 BM cells per mice) in the peritoneal cavity of the recipients. Animals received injections of NOS inhibitors as described above. Membranes with growing colonies were isolated and analyzed 7-8 days later.
The differentiation status of the colonies in the spleen was evaluated by morphological criteria, myeloperoxidase reaction, and by immunohistochemical tests for the presence of receptors to various cytokines, which are present only at specific stages of the myeloid cells' maturation. […] A much smaller fraction contained undifferentiated blasts cells (6%), and a very small fraction of colonies contained erythroid cells (1.3%). In contrast, when animals were treated with NOS inhibitors after BM transplantation, most of the colonies on the membranes (up to 85%) contained and undifferentiated blasts cells. Colonies with differentiated cells of the granulocyte lineage comprised only 15.6% of the total number of colonies, and a negligible fraction of the colonies (<0.5%) contained erythroid cells. The results were similar with two structurally unrelated NOS inhibitors, confirming the specificity of their action. Thus, prolonged treatment of recipient mice after BM transfer with NOS inhibitor, reversed the ratio of blast cells-contiaing colonies to the granulocytic colinies almost 80-fold, effectively preventing myeloid differentiation.

In a further test the test system is BM cells. The test can be described thus: Hematopoietic markers in BM cells of irradiated mice after injection of NOS inhibitors. The following applies: 7-10 days after transplantation. The protocol: To study the maturation of hematopoietic cells in the bone marrow of the irradiated recipient mice, the animals were treated as described above and the BM cells from the demurs of syngeneic donors were injected intravenously (10^5 BM cells per mice) in the recipients.
The BM cells were tested for the presence of various growth factor receptors which serve as markers of the differentiation stage and indicate the presence of stem cells and multipotent percursor cells. The BM preparations were tested for cells expressing receptors to HSF (ligand of c-kit), GM-CSF, G-CSF and IL-3.

On to `COC(=O)[C@H](N)CCCN=C(N)N[N+](=O)[O-]` [D-NAME, D-nitroarginine methyl ester], for which, in test [1], the “increase of diameter of certain leg segments (hypertrophy, third pair of legs)” value was “not”. Further, in test [2], the “blast cell and erythroid cells colonies” value amounted to 13%; the erythroid colonies was > 60%; the granulocyte colonies is 4%; the megakaryocyte colonies was found to be 7.5%. This compound also returned a blast cell colonies in test [2] (injections twice a day) of 14%. In test [3], this compound returned a blast cell colonies of 6%, an erythroid colonies of 1.3% and a granulocytic colonies of 92%. In the test on BM cells (control 2%), the “c-kit positive BM cells” value is recorded as 7%. Besides, the “IL-3-R positive BM cells” value in the test on BM cells (control 7%) came to 12%. Moreover, the “GM-CSF-R positive BM cells” value with BM cells (control 18%) is recorded as 16%. In addition, in the test on BM cells (control 24%), the “G-CSF-R positive BM cells” value is 19%.
